Data published in patent US20090239877A1, “NOVEL 1,2,4-TRIAZOLE DERIVATIVES AND PROCESS OF MANUFACTURING THEREOF” (AETERNA ZENTARIS GmbH, priority 2008, published 2009).

Columns and labels:
human GHS-R 1a [1] = molecular target: T1, human GHS-R 1a (Homo sapiens, UniProt Q92847); experiment: GHS-R 1a receptor-ligand binding assay (membrane preparations from transfected LLC PK-1 cells); parameters: expressed in transfected cells; conditions: displacement of 125I-His9-ghrelin; plasma membranes of LLC PK-1 cells transiently transfected with human GHS-R 1a; mean of at least two independent experiments in triplicates
Summary of the method: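 Membranes (10 μg protein) from LLC PK-1 cells transiently transfected with human GHS-R 1a cDNA were incubated 60 min at 25° C in 50 mM Tris pH 7.3 buffer with […] ^125I-His^9-ghrelin, with nonspecific binding defined by 10^−6 M ghrelin. Filter-bound radioactivity was gamma-counted, and IC50 was obtained by non-linear regression of competition curves.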

human GHS-R 1a [2] = molecular target: T1, human GHS-R 1a; experiment: In vitro intracellular calcium release assay using human GHS-R 1a transfected CHO cells; type: cell-based; parameters: expressed in transfected cells; host or cells: CHO-K1 Chinese hamster ovary cells (ATCC No. CCL-61), transient transfection by electroporation; conditions: intracellular calcium release, compound at 10^-6 M, relative to basal level (0%) and 1 μM ghrelin (100%)
Summary of the method: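 CHO-K1 cells transiently transfected with human GHS-R 1a were loaded with Fluo-4 AM in HBSS buffer with BSA, CaCl2 and probenecid, pH 7.4. Compound at 10^−6 M was added at 25 °C after 15 s of basal reading, and fluorescence (ex 485/em 525 nm) was recorded for 45 s. Response is expressed against 10^−6 M ghrelin (100%) and basal (0%).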

human GHS-R 1a [3] = molecular target: T1, human GHS-R 1a; experiment: as above; type: cell-based; parameters: expressed in transfected cells; host or cells: CHO-K1 Chinese hamster ovary cells (ATCC No. CCL-61), transient transfection by electroporation; conditions: antagonist dissociation constant, antagonist inhibition curves in the presence of 10^-7 M ghrelin, Cheng-Prusoff equation, Fluo-4 AM

T1 sequence (Q92847 whole entry): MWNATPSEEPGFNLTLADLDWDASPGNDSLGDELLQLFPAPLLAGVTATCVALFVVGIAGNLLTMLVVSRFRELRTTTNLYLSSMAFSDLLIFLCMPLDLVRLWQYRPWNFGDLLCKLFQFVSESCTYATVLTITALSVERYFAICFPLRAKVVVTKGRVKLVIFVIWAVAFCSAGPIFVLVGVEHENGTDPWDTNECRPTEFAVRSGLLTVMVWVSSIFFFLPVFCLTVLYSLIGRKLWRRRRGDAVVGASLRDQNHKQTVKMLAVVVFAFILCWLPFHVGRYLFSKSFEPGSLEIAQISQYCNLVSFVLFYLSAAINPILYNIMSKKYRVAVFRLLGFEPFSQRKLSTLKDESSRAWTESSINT

Row | IC50 (human GHS-R 1a [1]) [nM] | activation at 1 µM (human GHS-R 1a [2]) [%] | Kb (human GHS-R 1a [3]) [nM] | Structure (SMILES)
1 | 12 | 0 | 40 | COc1ccc(Cn2c(CCc3cc4ccccc4[nH]3)nnc2[C@@H](Cc2c[nH]c3ccccc23)NC(=O)C2CCOCC2)c(OC)c1 [Compound 11, N-((R)-1-(5-(2-(1H-indol-2-yl)ethyl)-4-(2,4-dimethoxybenzyl)-4H-1,2,4-triazol-3-yl)-2-(1H-indol-3-yl)ethyl)-tetrahydro-2H-pyran-4-carboxamide]
2 | 110 | 0 | 340 | O=C(Cc1ccccn1)N[C@H](Cc1c[nH]c2ccccc12)c1nnc(Cc2ccccc2)n1Cc1ccc(Cl)c(Cl)c1 [Compound 34, N-((R)-1-(4-(3,4-dichlorobenzyl)-5-benzyl-4H-1,2,4-triazol-3-yl)-2-(1H-indol-3-yl)ethyl)-2-(pyridin-2-yl)acetamide]
3 | 370 | 15 | 50 | O=C(N[C@H](Cc1c[nH]c2ccccc12)c1nnc(CCCc2c[nH]c3ccccc23)n1Cc1ccccc1)C1CCOCC1 [Compound 23, N-((R)-1-(5-(3-(1H-indol-3-yl)propyl)-4-benzyl-4H-1,2,4-triazol-3-yl)-2-(1H-indol-3-yl)ethyl)-tetrahydro-2H-pyran-4-carboxamide]
4 | 200 | 0 | 215 | O=C(N[C@H](Cc1c[nH]c2ccccc12)c1nnc(Cc2ccccc2)n1Cc1ccc(Cl)c(Cl)c1)C1CCOCC1 [Compound 37, N-((R)-1-(4-(3,4-dichlorobenzyl)-5-benzyl-4H-1,2,4-triazol-3-yl)-2-(1H-indol-3-yl)ethyl)-tetrahydro-2H-pyran-4-carboxamide]
